Measurements as given in PubChem BioAssay (NCI).
Where “and” joins values, the source holds several entries; their conditions need not be identical. Equal entries are not always repeated.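 Cultured in 96-well plates, cells were exposed to test compound for 48 hours across five concentrations. Abbreviation: GI50, concentration required for 50% inhibition of growth. Definition used: TGI = concentration required for complete inhibition of growth.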

How the values were obtained:
Test in all cases: NCI tumour cell line growth inhibition, 48 h
DU-145 prostate = test system: DU-145 prostate
LOX IMVI melanoma = test system: LOX IMVI melanoma
MCF7 breast = test system: MCF7 breast
NCI-H23 lung = test system: NCI-H23 lung
NCI-H522 lung = test system: NCI-H522 lung
OVCAR-8 ovarian = test system: OVCAR-8 ovarian
SK-OV-3 ovarian = test system: SK-OV-3 ovarian
SN12C renal = test system: SN12C renal
SNB-19 CNS = test system: SNB-19 CNS
UACC-62 melanoma = test system: UACC-62 melanoma

Row | Structure (SMILES) | GI50 (DU-145 prostate) [nM] | TGI (DU-145 prostate) | GI50 (LOX IMVI melanoma) | TGI (LOX IMVI melanoma) | GI50 (MCF7 breast) [nM] | TGI (MCF7 breast) | GI50 (NCI-H23 lung) | TGI (NCI-H23 lung) | GI50 (NCI-H522 lung) | TGI (NCI-H522 lung) | GI50 (OVCAR-8 ovarian) | TGI (OVCAR-8 ovarian) | GI50 (SK-OV-3 ovarian) [nM] | TGI (SK-OV-3 ovarian) | GI50 (SN12C renal) | TGI (SN12C renal) | GI50 (SNB-19 CNS) [nM] | TGI (SNB-19 CNS) | GI50 (UACC-62 melanoma) | TGI (UACC-62 melanoma)
1 | CCCCCCCCCCCCCCCCCCNC(=O)[C@H]1CSC(c2cccs2)N1 (some centres not stated) | 2910 | > 50000 nM | 834 nM | 2020 nM | 764 | 1580 nM | 1800 nM | 17700 nM | 3590 nM | > 50000 nM | 1310 nM | 3340 nM | 4510 | 18300 nM | 885 nM | 1760 nM | 3600 | > 50000 nM | 908 nM | 1690 nM
2 | C=C1CC2(OC1=O)C(=O)N(CCCN1C(=O)C3(CC(=C)C(=O)O3)c3ccccc31)c1ccccc12 (configuration not stated) | 1730 | 3520 nM | 805 nM | 2100 nM | 1400 | 4450 nM | 2340 nM | 6140 nM | 444 nM | 1870 nM | 1350 nM | 5490 nM | 11400 | 23700 nM | 2290 nM | 6260 nM | 13300 | 26200 nM | 1540 nM | 3110 nM
3 | OB1OCc2cc(/C=C/c3cccc(C(F)(F)F)c3)ccc21 | 554 | 15300 nM | 302 nM | 1250 nM | 452 | 44400 nM | 625 nM | 80600 nM | 991 nM | 87900 nM | 918 nM | 24200 nM | 2900 | 63500 nM | 1460 nM | > 100000 nM | 765 | 48700 nM | 551 nM | 63400 nM
4 | Cc1cc2c(Br)cc(Br)c(O)c2nc1C(=O)c1ccccc1 | – | > 100000 nM | – | > 86000 nM | – | > 100000 nM | – | 51100 nM | – | > 100000 nM | – | > 100000 nM | – | – | – | > 100000 nM | – | > 100000 nM | – | 15300 nM
5 | Cc1cc(Nc2nc(SCc3ccc(C(=O)Nc4ccc(F)cc4N)cc3)nn3cccc23)n[nH]1 | 461 | > 100000 nM | 665 nM | > 100000 nM | 51.8 | 29300 nM | 603 nM | 47400 nM | 48.8 nM | 565 nM | 483 nM | 88000 nM | 339 | 4610 nM | 1250 nM | > 100000 nM | 536 | > 100000 nM | 347 nM | 21600 nM
6 | COc1ccccc1/C=C/C(=O)/C=C/c1ccccc1O | 1020 | 2630 nM | 724 nM | 2010 nM | 195 | 1730 nM | 1500 nM | 4100 nM | 950 nM | 2210 nM | 1260 nM | 10400 nM | 2050 | 5600 nM | 1660 nM | 5650 nM | 1480 | 2940 nM | 1160 nM | 2550 nM
7 | CCC1=C[C@@H]2CN(C1)Cc1c([nH]c3ccccc13)[C@@](C(=O)OC)(c1cc3c(cc1OC)N(C)[C@H]1[C@@](O)(C(=O)OC)[C@H](OC(C)=O)[C@]4(CC)[C@@H]5C[C@@H]5CN5CC[C@]31[C@@H]54)C2 | < 5 | – | < 5 nM | – | < 5 | 5440 nM and 12600 nM | < 5 nM and 49.2 nM | 10200 nM and 38400 nM | < 5 nM | < 5 nM | < 5 nM and 29.2 nM | 6900 nM and 12700 nM | < 5 | – | – | 7540 nM and 18500 nM | – | 19200 nM and 35100 nM | < 5 nM | 6390 nM and 16900 nM
8 | CCCCCCCCCCCC[n+]1ccccc1 (tested in a mixture with another compound) | 1500 | 9880 nM | 691 nM | 2410 nM | 1040 | 5500 nM | 655 nM | 5480 nM | 855 nM | 5420 nM | 777 nM | 11300 nM | 1160 | 3740 nM | 1190 nM | 3430 nM | 1290 | 3480 nM | 1090 nM | 2540 nM
9 | Cn1c2ccccc2c2c(=O)c3ccccc3[nH]c21 | 33200 | > 100000 nM | 44200 nM | > 100000 nM | 30300 | > 100000 nM | 30500 nM | > 100000 nM | > 100000 nM | > 100000 nM | > 100000 nM | > 100000 nM | – | – | 38500 nM | > 100000 nM | 43900 | > 100000 nM | 69700 nM | > 100000 nM
10 | O=C(c1ccc2ccccc2c1)c1c(C(F)(F)F)n([O-])c2ccc(Cl)cc2[n+]1=O | 1470 | 2790 nM | 195 nM | 375 nM | 417 | 1430 nM | – | – | 1610 nM | 3020 nM | 1550 nM | 2910 nM | 1750 | 3130 nM | 1690 nM | 3200 nM | 1690 | 3070 nM | 1710 nM | 3080 nM
11 | OC(c1ccc(Br)cc1)(c1cccs1)C1CC1 (configuration not stated) | – | 81600 nM | – | 42400 nM | – | 72600 nM | – | 56900 nM | – | 40900 nM | – | 54100 nM | – | > 100000 nM | – | – | – | > 100000 nM | – | 33300 nM
12 | CC1(C)CC[C@H](C2=CC(=O)c3c(O)ccc(O)c3C2=O)O1 | – | 6280 nM and 4380 nM | 1780 nM and 303 nM and 658 nM | 4660 nM and 1130 nM and 1970 nM | – | 739 nM and 337 nM | 2140 nM and 836 nM and 639 nM | 6410 nM and 2070 nM and 2360 nM | 550 nM and 94.2 nM | 1230 nM and 248 nM | 2270 nM and 675 nM and 581 nM | 20400 nM and 3440 nM and 2120 nM | 4810 | 18800 nM and 13700 nM | 2600 nM and 1510 nM and 382 nM | – | – | – | 2360 nM and 1300 nM and 540 nM | 5280 nM and 2660 nM and 1530 nM
13 | CC(=O)N[C@H](C(=O)N[C@@H](CCCNC(=N)N)C(=O)N[C@@H](CCCCN)C(=O)N[C@@H](CCCNC(=N)N)C(=O)N[C@]1(C)CCCCCC/C=C\CCC[C@@](C)(C(=O)N[C@@H](CCCNC(=N)N)C(=O)N[C@@H](CCC(=O)O)C(=O)N[C@@H](CC(C)C)C(=O)N[C@H](C(=O)N[C@@H](CCC(=O)O)C(N)=O)C(C)C)NC(=O)[C@H](CCC(N)=O)NC(=O)[C@H](CC(C)C)NC(=O)[C@H](CC(C)C)NC(=O)[C@H](CCCNC(=N)N)NC(=O)[C@H](CCCNC(=N)N)NC(=O)[C@H](CC(C)C)NC1=O)C(C)C | 1870 | 7440 nM | 10100 nM | 43000 nM | 2000 | 32900 nM | 2770 nM | 30100 nM | 2660 nM | > 50000 nM | 1600 nM | > 50000 nM | 3720 | 27700 nM | 2330 nM | > 50000 nM | 10300 | > 50000 nM | – | –
